pIC50, pKi: −log10 of the molar value. Where a name gives a salt, the structure may show the parent alone. Read-outs that look alike come from different tables or passages of the source.
Tests used:
[1] = molecular target: T1, human norepinephrine transporter (hNET) (Homo sapiens, UniProt P23975); test: Binding affinity to human norepinephrine transporter (hNET), [3H]Nisoxetine displacement; conditions: membranes from MDCK cells expressing hNET, [3H]Nisoxetine 2 nM, read-out: NET binding, Ki
T1 construct: expressed in transfected cells; host or cells: MDCK cells
T1 sequence (P23975 whole entry): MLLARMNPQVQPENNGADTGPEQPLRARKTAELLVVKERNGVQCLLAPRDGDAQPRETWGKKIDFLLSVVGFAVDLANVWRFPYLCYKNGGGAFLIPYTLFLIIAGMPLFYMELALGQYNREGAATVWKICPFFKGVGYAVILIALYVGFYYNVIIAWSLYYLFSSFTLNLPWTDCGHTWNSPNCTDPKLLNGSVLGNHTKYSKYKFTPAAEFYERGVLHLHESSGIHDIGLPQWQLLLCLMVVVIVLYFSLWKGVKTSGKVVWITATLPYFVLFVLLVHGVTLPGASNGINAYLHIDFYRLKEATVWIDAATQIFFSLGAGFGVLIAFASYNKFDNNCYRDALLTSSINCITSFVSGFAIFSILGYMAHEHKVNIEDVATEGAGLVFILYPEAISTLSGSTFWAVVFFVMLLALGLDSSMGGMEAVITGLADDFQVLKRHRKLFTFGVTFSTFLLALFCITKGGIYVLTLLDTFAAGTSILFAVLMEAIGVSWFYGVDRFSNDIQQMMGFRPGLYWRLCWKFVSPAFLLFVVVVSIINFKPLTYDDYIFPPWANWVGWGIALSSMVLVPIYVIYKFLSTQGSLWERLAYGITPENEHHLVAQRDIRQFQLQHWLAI
Method: The binding affinities of certain compounds disclosed herein to the hNET were measured using competitive radioligand displacement assays in membranes prepared from MDCK cells that express the human norepinephrine transporter. Competition binding experiments were conducted by incubating hNET membranes with [^3H] Nisoxetine (2 nM), in the presence of increasing concentrations of test compounds. Incubations were carried out at 4° C. for 60 minutes in buffer containing 50 mM Tris HCl, 120 mM NaCl and 5 mM KCl (pH 7.4). The binding reaction was terminated by rapid filtration, membranes were washed and membrane-bound radioactivity was measured using a scintillation counter. Non-specific binding was measured in the presence of excess (10 μM) clomipramine as the unlabelled ligand and this value was subtracted from the total binding to yield the specific binding at each test compound concentration.
IC50 values were obtained from non-linear regression analysis of concentration-versus specific binding plots. Ki values were calculated from the IC50 values using the Cheng Prusoff correction and experimentally determined […] values for the radioligand under these assay conditions.

[2] = molecular target: T2, cloned human hERG channel (Homo sapiens, UniProt Q12809); test: In vitro effect on hERG channels, whole-cell patch clamp in HEK cells; assay type: cell-based; conditions: 37 °C, read-out: IhERG, 0.1 HZ, IC50
T2 construct: expressed in transfected cells; host or cells: HEK cells
T2 sequence (Q12809 whole entry): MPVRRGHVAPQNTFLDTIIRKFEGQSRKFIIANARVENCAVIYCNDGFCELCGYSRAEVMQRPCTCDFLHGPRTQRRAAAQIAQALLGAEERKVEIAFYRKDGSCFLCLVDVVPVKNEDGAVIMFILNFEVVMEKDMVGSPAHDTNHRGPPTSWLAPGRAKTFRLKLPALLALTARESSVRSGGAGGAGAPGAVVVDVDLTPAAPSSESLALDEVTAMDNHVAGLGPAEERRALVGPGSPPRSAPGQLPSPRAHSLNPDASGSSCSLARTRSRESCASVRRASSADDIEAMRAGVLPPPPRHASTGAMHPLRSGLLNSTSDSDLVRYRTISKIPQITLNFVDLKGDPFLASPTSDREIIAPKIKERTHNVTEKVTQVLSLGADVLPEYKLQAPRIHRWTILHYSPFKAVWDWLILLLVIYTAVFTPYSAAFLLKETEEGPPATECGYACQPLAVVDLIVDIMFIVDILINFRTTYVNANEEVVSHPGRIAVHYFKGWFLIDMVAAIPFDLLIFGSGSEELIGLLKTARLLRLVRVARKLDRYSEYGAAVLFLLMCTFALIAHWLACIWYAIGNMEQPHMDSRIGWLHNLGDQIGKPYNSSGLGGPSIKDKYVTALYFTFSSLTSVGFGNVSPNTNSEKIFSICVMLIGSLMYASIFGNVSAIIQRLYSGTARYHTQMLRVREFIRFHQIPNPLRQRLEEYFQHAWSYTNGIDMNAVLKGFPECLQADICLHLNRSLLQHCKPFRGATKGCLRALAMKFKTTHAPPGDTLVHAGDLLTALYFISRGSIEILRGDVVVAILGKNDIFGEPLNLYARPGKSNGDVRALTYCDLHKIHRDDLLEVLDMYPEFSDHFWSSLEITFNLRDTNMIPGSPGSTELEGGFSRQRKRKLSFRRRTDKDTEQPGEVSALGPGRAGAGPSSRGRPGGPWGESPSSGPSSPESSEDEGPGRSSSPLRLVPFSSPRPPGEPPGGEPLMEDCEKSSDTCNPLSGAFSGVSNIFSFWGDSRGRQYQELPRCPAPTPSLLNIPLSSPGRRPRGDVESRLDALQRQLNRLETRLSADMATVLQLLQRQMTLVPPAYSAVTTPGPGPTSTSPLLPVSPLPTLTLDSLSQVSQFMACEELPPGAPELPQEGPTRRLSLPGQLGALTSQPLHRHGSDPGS
Method: Electrophysiological measurements of hERG current were made in vitro to assess the hERG block produced by certain compounds disclosed herein. hERG currents were measured in HEK cells expressing the cloned human hERG channel using the whole-cell variant of the patch clamp method. Experiments were performed at 37±1° C. An Axopatch 1-B amplifier (Axon Instruments, Foster City, Calif.) was used for whole-cell voltage clamping. Creation of voltage clamp pulses and data acquisition was controlled by a PC running pClamp software (version 9.2, Axon Instruments). After rupture of the cell membrane (entering whole-cell mode), current kinetics and amplitudes were allowed to stabilize for 3-5 minutes as the cell was dialyzed with internal solution and paced at 0.1 Hz. Cells were depolarized to +10 mV for 500 ms from a holding potential of −75 mV and peak hERG current was measured as the maximum outward deflection of the tail current elicited upon return to −40 mV (pacing rate=0.1 Hz). Four concentrations of each test compound were added to the cell in a cumulative manner starting with the lowest test concentration. Each cell served as its own control and data are presented as % reduction of current amplitude achieved in the presence of drug.
A nonlinear curve fitting routine was utilized to fit a three-parameter Hill equation to the results using MicroCal Origin, version 6.0 software. The equation was: […]

[3] = system: sodium channels (sodium current INa) in rat dorsal root ganglion (DRG) cells; test: Sodium channel assay, whole-cell patch clamp of sodium current in isolated DRG cells; assay type: cell-based
Description: The effect of compounds disclosed herein on sodium channels may be evaluated in vitro to determine their blocking properties using the whole-cell patch clamp method in isolated cardiac (human atrial myocytes) and neuronal (rat dorsal root ganglion) cells. The example below refers to a sodium channel assay using neuronal cells.
Electrophysiologic patch clamp recordings of the sodium current in isolated rat dorsal root ganglion (DRG) cells were used to measure the sodium channel blocking properties of certain compounds disclosed herein. DRG cells were isolated according to the method of Blair and Bean (J Neurosci, 22: pp. 10277-10290, 2002) and plated on treated glass coverslips. For measuring the sodium current, cells were perfused with an external solution that consists of (in mmol/L): 115 TMA chloride, 10 NaCl, 5 CsCl, 1.8 CaCl2, 1.2 MgCl2, 10 HEPES, 11 dextrose, pH adjusted to 7.4 with TMA-OH. The chemical composition of the internal solution was (in mmol/L): 115 CsF, 20 CsCl, 10 NaF, 10 HEPES, 5 EGTA; pH adjusted to 7.2 with CsOH. Currents were measured using the whole-cell variant of the patch clamp method (Crumb & Clarkson, Biophysical Journal, 57(3): 589, 1990). An Axopatch 1-B amplifier (Axon Instruments, Foster City, Calif.) was used for whole-cell voltage clamping. Creation of voltage clamp pulses and data acquisition were controlled by a PC running pClamp software (version 9.2, Axon Instruments). INa was elicited by a 40 ms pulse to −20 mV from a holding potential of −65 mV. Pacing rates of 0.1 and 3 Hz were examined. […]. Four concentrations of each test compound were added to the cell in a cumulative manner starting with the lowest test concentration. Each cell served as its own control and data are presented as % reduction of current amplitude achieved in the presence of drug. A nonlinear curve fitting routine was utilized to fit a three-parameter Hill equation to the results using MicroCal Origin, version 6.0 software. The equation was: […]

Compound | pKi ([1]; Table 3) | pIC50 ([2]; Table 3, pacing rate 0.1 Hz) | pKi ([1]; Table 1) | pIC50 ([3]; Table 1, pacing rate 3 Hz) | pKi ([1]; Table 2) | pIC50 ([2]; Table 2, pacing rate 0.1 Hz) | further results
CN(C)CC/C=C1/c2ccccc2C[C@@H](O)c2ccccc21 [(R)-5-(3-dimethylamino-propylidene)-10,11-dihydro-5H-dibenzo[a,d]cyclohept-Z-en-10-ol, reference compound] | 5.20 | 5.39 | – | – | – | – | –
5-(3-Dimethylamino-propylidene)-10,11-dihydro-5H-dibenzo[a,d]cyclohept-E-en-2-OmPEG6 hydrochloride salt | – | – | 4.45 | 4.79 | – | – | pIC50 ([2]; Table 1, pacing rate 0.1 Hz): 4.21
COCCOCCOCCOCCOCCOCCO[C@H]1Cc2ccccc2/C(=C/CCN(C)C)c2ccccc21 [(S)-5-(3-dimethylamino-propylidene)-10-OmPEG6-10,11-dihydro-5H-dibenzo[a,d]cyclohept-Z-ene trifluoroacetate salt] | 4.66 | 4.42 | – | – | – | – | –
COCCOCCO[C@@H]1Cc2ccccc2/C(=C\CCN(C)C)c2ccccc21 [(R)-5-(3-dimethylamino-propylidene)-10-OmPEG2-10,11-dihydro-5H-dibenzo[a,d]cyclohept-E-ene trifluoroacetate salt] | – | – | – | – | 4.31 | 4.85 | –
COCCOCCOCCOCCOCCOCCOCCOCCO[C@@H]1Cc2ccccc2/C(=C\CCN(C)C)c2ccccc21 [(R)-5-(3-dimethylamino-propylidene)-10-OmPEG8-10,11-dihydro-5H-dibenzo[a,d]cyclohept-E-ene trifluoroacetate salt] | – | – | – | – | 4.87 | 4.25 | pIC50 ([3]; Table 2, pacing rate 3 Hz): 4.67
COCCOCCOCCOCCOCCOCCOCCOCCO[C@H]1Cc2ccccc2/C(=C/CCN(C)C)c2ccccc21 [(S)-5-(3-dimethylamino-propylidene)-10-OmPEG8-10,11-dihydro-5H-dibenzo[a,d]cyclohept-Z-ene trifluoroacetate salt] | 5.52 | 4.48 | – | – | – | – | –
COCCOCCOCCOCCOCCOCCO[C@@H]1Cc2ccccc2/C(=C/CCN(C)C)c2ccccc21 [(R)-5-(3-dimethylamino-propylidene)-10-OmPEG6-10,11-dihydro-5H-dibenzo[a,d]cyclohept-Z-ene trifluoroacetate salt] | 4.50 | 4.72 | – | – | – | – | –
CN(C)CCC=C1c2ccccc2CCc2ccccc21 [Amitriptyline, reference compound] | – | – | – | 5.15 | – | – | pIC50 ([3]; Table 2, pacing rate 3 Hz): 5.15
CN(C)CC/C=C1/c2ccccc2CCc2cc(O)ccc21 [(Z)-5-(3-(dimethylamino)propylidene)-10,11-dihydro-5H-dibenzo[a,d][7]annulen-2-ol, reference compound] | – | – | 6.30 | 4.83 | – | – | pIC50 ([2]; Table 1, pacing rate 0.1 Hz): 5.80
COCCOCCOCCOCCO[C@@H]1Cc2ccccc2/C(=C/CCN(C)C)c2ccccc21 [(R)-5-(3-dimethylamino-propylidene)-10-OmPEG4-10,11-dihydro-5H-dibenzo[a,d]cyclohept-Z-ene trifluoroacetate salt] | 4.51 | 4.67 | – | – | – | – | –
5-(3-Dimethylamino-propylidene)-10,11-dihydro-5H-dibenzo[a,d]cyclohept-Z-en-2-OmPEG6 hydrochloride salt | – | – | 4.42 | 4.91 | – | – | pIC50 ([2]; Table 1, pacing rate 0.1 Hz): 5.09
COCCOCCOCCOCCOCCOCCO[C@@H]1Cc2ccccc2/C(=C\CCN(C)C)c2ccccc21 [(R)-5-(3-dimethylamino-propylidene)-10-OmPEG6-10,11-dihydro-5H-dibenzo[a,d]cyclohept-E-ene trifluoroacetate salt] | – | – | – | – | 4.22 | 4.42 | pIC50 ([3]; Table 2, pacing rate 3 Hz): 5.09
COCCOCCOCCOCCO[C@@H]1Cc2ccccc2/C(=C\CCN(C)C)c2ccccc21 [(R)-5-(3-dimethylamino-propylidene)-10-OmPEG4-10,11-dihydro-5H-dibenzo[a,d]cyclohept-E-ene trifluoroacetate salt] | – | – | – | – | 4.55 | 4.40 | pIC50 ([3]; Table 2, pacing rate 3 Hz): 4.67
COCCO[C@@H]1Cc2ccccc2/C(=C\CCN(C)C)c2ccccc21 [(R)-5-(3-dimethylamino-propylidene)-10-OmPEG1-10,11-dihydro-5H-dibenzo[a,d]cyclohept-E-ene trifluoroacetate salt] | – | – | – | – | 5.35 | 4.92 | –
COCCOCCOCCOCCOCCOCCOCCOCCO[C@@H]1Cc2ccccc2/C(=C/CCN(C)C)c2ccccc21 [(R)-5-(3-dimethylamino-propylidene)-10-OmPEG8-10,11-dihydro-5H-dibenzo[a,d]cyclohept-Z-ene trifluoroacetate salt] | 5.36 | < 4.00 | – | – | – | – | –
CN(C)CC/C=C1/c2ccccc2C[C@H](O)c2ccccc21 [(S)-5-(3-Dimethylamino-propylidene)-10,11-dihydro-5H-dibenzo[a,d]cyclohept-Z-en-10-ol, reference compound] | 6.01 | 5.14 | – | – | – | – | –
CN(C)CC/C=C1\c2ccccc2CCc2cc(O)ccc21 [(E)-5-(3-(dimethylamino)propylidene)-10,11-dihydro-5H-dibenzo[a,d][7]annulen-2-ol, reference compound] | – | – | 6.80 | – | – | – | –
COCCOCCOCCOCCOc1ccc2c(c1)CCc1ccccc1/C2=C/CCN(C)C [5-(3-Dimethylamino-propylidene)-10,11-dihydro-5H-dibenzo[a,d]cyclohept-Z-en-2-OmPEG4 hydrochloride salt] | – | – | 4.67 | 4.89 | – | – | pIC50 ([2]; Table 1, pacing rate 0.1 Hz): 4.60
COCCOCCOCCOCCO[C@H]1Cc2ccccc2/C(=C/CCN(C)C)c2ccccc21 [(S)-5-(3-dimethylamino-propylidene)-10-OmPEG4-10,11-dihydro-5H-dibenzo[a,d]cyclohept-Z-ene trifluoroacetate salt] | 4.56 | 4.94 | – | – | – | – | –
COCCOCCOCCOCCOCCOCCOCCOCCOc1ccc2c(c1)CCc1ccccc1/C2=C\CCN(C)C [5-(3-Dimethylamino-propylidene)-10,11-dihydro-5H-dibenzo[a,d]cyclohept-E-en-2-OmPEG8 hydrochloride salt] | – | – | 4.20 | 4.63 | – | – | pIC50 ([2]; Table 1, pacing rate 0.1 Hz): 5.66
COCCOCCOCCOCCOCCOCCOCCOCCO[C@H]1Cc2ccccc2/C(=C\CCN(C)C)c2ccccc21 [(S)-5-(3-dimethylamino-propylidene)-10-OmPEG8-10,11-dihydro-5H-dibenzo[a,d]cyclohept-E-ene trifluoroacetate salt] | – | – | – | – | 4.85 | < 4.00 | pIC50 ([3]; Table 2, pacing rate 3 Hz): 4.15
CN(C)CC/C=C1\c2ccccc2C[C@H](O)c2ccccc21 [(S)-5-(3-Dimethylamino-propylidene)-10,11-dihydro-5H-dibenzo[a,d]cyclohept-E-en-10-ol, reference compound] | – | – | – | – | 6.47 | 4.63 | pIC50 ([3]; Table 2, pacing rate 3 Hz): 4.78
COCCOCCOCCOCCOCCOCCOCCOCCOc1ccc2c(c1)CCc1ccccc1/C2=C/CCN(C)C [5-(3-Dimethylamino-propylidene)-10,11-dihydro-5H-dibenzo[a,d]cyclohept-Z-en-2-OmPEG8 hydrochloride salt] | – | – | 3.19 | 4.77 | – | – | pIC50 ([2]; Table 1, pacing rate 0.1 Hz): 4.58

Source: US9090535B2, “Hydroxylated tricyclic compounds” (Nektar Therapeutics, priority 2010, dated 2015)
